# Laboratory results as given in patent US20080039455A1, “PYRAZOLOPYRIMIDINES AND SALTS THEREOF, PHARMACEUTICAL COMPOSITIONS COMPRISING SAME, METHODS OF PREPARING SAME AND USES OF SAME” (priority 2006, published 2008).
# Molecular target: T1, human recombinant ALK1 (GST fused to ALK1 intracellular domain [His142-Gln503]) (Homo sapiens, UniProt P37023)
# T1 construct: GST fused to ALK1 intracellular domain [His142-Gln503]; made in house
# T1 sequence (P37023 142-503): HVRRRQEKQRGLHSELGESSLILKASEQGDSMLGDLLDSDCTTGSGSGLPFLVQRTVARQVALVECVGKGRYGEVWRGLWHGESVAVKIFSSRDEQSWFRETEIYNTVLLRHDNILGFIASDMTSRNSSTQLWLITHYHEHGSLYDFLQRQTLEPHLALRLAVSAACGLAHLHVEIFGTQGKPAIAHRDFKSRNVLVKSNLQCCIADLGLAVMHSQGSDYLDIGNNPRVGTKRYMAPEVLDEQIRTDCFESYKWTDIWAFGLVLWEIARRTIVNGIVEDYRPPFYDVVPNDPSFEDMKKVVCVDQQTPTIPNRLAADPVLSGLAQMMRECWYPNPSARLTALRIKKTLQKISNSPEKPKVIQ
# Experiment: ALK1-Kinase Flashplate-Assay
# Format: biochemical
# Conditions: 0.5 μM ATP, biotinylated α-casein substrate; read-out: Assay 1 (ALK1-Kinase Flashplate-Assay IC50 class)
# Excerpt: Biological Assay 1: ALK1-Kinase Flashplate-Assay
# ALK1 phosphorylates serine/threonine residues of the biotinylated substrate bovine α-casein in the presence of [γ-^33P]ATP. Detection of the radiolabeled phosphorylated product is achieved by binding to streptavidine-coated Flashplates. The biotin moieties of biotinylated casein bind with high affinity to the streptavidine. The radiolabeled biotinylated casein produced by the ALK1 kinase reaction is able to generate a […] signal when strepatavidine-mediated binding occurs to the scintillant-containing surface of the Flashplates due to the close proximity of the radiolabel and the scintillant. […] The signals obtained are therefore indicative of the ALK1 kinase activity. Measurement is performed in a Perkin-Elmer TopCount or Perkin-Elmer ViewLux instrument.
# Enzyme: Purified human recombinant ALK1 (GST fused to ALK1 intracellular domain [His142-Gln503]) produced in-house, aliquots stored at −80° C.;
# Diluted enzyme working solution: 2.5 ng/μl ALK1 (in assay buffer) freshly prepared and chilled on ice until use.
# Substrate: biotinylated bovine α-casein. Unbiotinylated casein obtained from Sigma was biotinylated by standard procedures using N-hydroxysuccinimide (NHS) ester of biotin.
# Substrate working solution: 0.83 μM ATP, 1.67 μM biotinylated a-casein, 7.4 nCi [γ-^33P]ATP/μl in assay buffer
# Assay plates: 384-well plates, small volume, white, Greiner (# 784075)
# Flashplates: Streptavidin-coated Flashplates, Perkin Elmer (384-well # SPM410A)
# Assay buffer: 50 mM Tris/HCl pH 8.0, 1 mM MnCl2, 1 mM DTT, 0.01% NP40, 0.5× Complete EDTA-free
# Stop solution: 33.3 μM ATP, 33.3 mM EDTA, 0.07% Triton X-100 in PBS
# Saturating buffer for Flashplates: 100 μM ATP, 0.2% Triton X-100 in PBS
# Sealing tape: Greiner (# 676080)
# Protocol for small volume 5 μl assay (all steps are performed at 20° C., pipetted with CyBi-Well and Multidrop Micro): • 1. 50 nl or 250 nl compound in 100% DMSO • 2. addition of 3 μl substrate working solution with CyBi-Well pipettor • 3. addition of 2 μl enzyme working solution with Multidrop Micro incubation for 60 min at room temperature • 4. addition of 15 μl Stop solution with CyBi-Well pipettor • 5. transfer of 18 μl assay mixture to Flashplates** with CyBi-Well pipettor incubation for at least 3 h at room temperature or over night at 4° C. to allow binding to the streptavidine-coated Flashplates • 6. washing the Flashplates 3 times with 50 μl PBS without Ca++ and Mg++ • 7. sealing with sealing tape • 8. Measurement in Topcount (60 sec/well) **Saturation of Flashplates: The Flashplates are preincubated for at least 1 hour with 50 μl saturating buffer. Remove 18 μl from the 50 μl and transfer 18 μl of the assay mixture to the Flashplate.
# Final concentrations, calculated for 5 μl reaction volume: ALK1 5 ng/well; 1 μM biotinylated α-casein; 0.5 μM ATP; 22 nCi/well [γ-^33P]ATP; 1 mM MnCl2; 1 mM DTT; 50 mM Tris-HCl; pH 8.0; 0.01% NP40; 0.5× Complete EDTA-free; 1% or 5% DMSO.
# The data were normalised (enzyme reaction without inhibitor=0% inhibition, enzyme reaction in the presence of 10 mM EDTA=100% inhibition) and IC50 values were calculated by a 4 parameter fit using an in-house software.
row,SMILES,IC50
1,"CCN(CC)CCCNc1ccn2ncc(-c3ccc(C)c(Cl)c3)c2n1 [Example 492, N′-[3-(3-Chloro-4-methyl-phenyl)-pyrazolo[1,5-a]pyrimidin-5-yl]-N,N-diethyl-propane-1,3-diamine]",1000 to 10000 nM
2,"COc1ccc(-c2cnn3ccc(NCCO)nc23)cc1OC [Example 73, 2-[3-(3,4-Dimethoxy-phenyl)-pyrazolo[1,5-a]pyrimidin-5-ylamino]-ethanol]",< 1000 nM
3,"c1ccc2sc(-c3cnn4ccc(NCc5ccncc5)nc34)cc2c1 [Example 64, (3-Benzo[b]thiophen-2-yl-pyrazolo[1,5-a]pyrimidin-5-yl)-pyridin-4-ylmethyl-amine]",< 1000 nM
4,"Oc1cccc(-c2cnn3ccc(Nc4ccccc4)nc23)c1 [Example 271, 3-(5-Phenylamino-pyrazolo[1,5-a]pyrimidin-3-yl)-phenol]",1000 to 10000 nM
5,"CC(=O)Nc1ccc(Nc2ccn3ncc(-c4cccc(N(C)C)c4)c3n2)cc1 [Example 331, N-{4-[3-(3-Dimethylamino-phenyl)-pyrazolo[1,5-a]pyrimidin-5-ylamino]-phenyl}-acetamide]",1000 to 10000 nM
6,"CS(=O)(=O)Nc1cccc(-c2cnn3ccc(Nc4ccccc4)nc23)c1 [Example 243, N-[3-(5-Phenylamino-pyrazolo[1,5-a]pyrimidin-3-yl)-phenyl]-methanesulfonamide]",< 1000 nM
7,"COc1cc(Nc2ccn3ncc(-c4cccc(O)c4)c3n2)cc(OC)c1OC [Example 138, 3-[5-(3,4,5-Trimethoxy-phenylamino)-pyrazolo[1,5-a]pyrimidin-3-yl]-phenol]",1000 to 10000 nM
8,"COc1cncc(-c2cnn3ccc(NCCO)nc23)c1 [Example 123, 2-[3-(5-Methoxy-pyridin-3-yl)-pyrazolo[1,5-a]pyrimidin-5-ylamino]-ethanol]",< 1000 nM
9,"COc1cc(-c2cnn3ccc(Nc4ccc(Oc5ccccc5)cc4)nc23)cc(OC)c1OC [Example 254, (4-Phenoxy-phenyl)-[3-(3,4,5-trimethoxy-phenyl)-pyrazolo[1,5-a]pyrimidin-5-yl]-amine]",1000 to 10000 nM
10,"COc1ccc(Nc2ccn3ncc(-c4cccc(NS(C)(=O)=O)c4)c3n2)cn1 [Example 197, N-{3-[5-(6-Methoxy-pyridin-3-ylamino)-pyrazolo[1,5-a]pyrimidin-3-yl]-phenyl}-methanesulfonamide]",1000 to 10000 nM
11,"CC(C)c1ccc(Nc2ccn3ncc(-c4cccc(C(=O)NCCN(C)C)c4)c3n2)cc1 [Example 1, N-(2-dimethylamino-ethyl)-3-[5-(4-isopropyl-phenylamino)-pyrazolo[1,5-a]pyrimidin-3-yl]-benzamide]",< 1000 nM
12,"Cc1ccc(S(=O)(=O)Nc2ccc(Nc3ccn4ncc(-c5ccncc5)c4n3)cc2)cc1 [Example 51, 4-Methyl-N-[4-(3-pyridin-4-yl-pyrazolo[1,5-a]pyrimidin-5-ylamino)-phenyl]-benzenesulfonamide]",< 1000 nM
13,"COc1cc(-c2cnn3ccc(NCc4ccncc4)nc23)cc(OC)c1OC [Example 418, Pyridin-4-ylmethyl-[3-(3,4,5-trimethoxy-phenyl)-pyrazolo[1,5-a]pyrimidin-5-yl]-amine]",< 1000 nM
14,"c1cc(CNc2ccn3ncc(-c4ccc5c(c4)OCO5)c3n2)ccn1 [Example 61, (3-Benzo[1,3]dioxol-5-yl-pyrazolo[1,5-a]pyrimidin-5-yl)-pyridin-4-ylmethyl-amine]",< 1000 nM
15,"NC(=O)c1cccc(-c2cnn3ccc(NC4CCC(O)CC4)nc23)c1 (stereo not drawn) [Example 220, 3-[5-(4-Hydroxy-cyclohexylamino)-pyrazolo[1,5-a]pyrimidin-3-yl]-benzamide]",1000 to 10000 nM
16,"c1cncc(CNc2ccn3ncc(-c4ccc5c(c4)OCO5)c3n2)c1 [Example 290, (3-Benzo[1,3]dioxol-5-yl-pyrazolo[1,5-a]pyrimidin-5-yl)-pyridin-3-ylmethyl-amine]",1000 to 10000 nM
17,"Fc1ccc(-c2cnn3ccc(NCc4ccncc4)nc23)cc1 [Example 398, [3-(4-Fluoro-phenyl)-pyrazolo[1,5-a]pyrimidin-5-yl]-pyridin-4-ylmethyl-amine]",< 1000 nM
18,"c1ccc(Nc2ccn3ncc(-c4cccnc4)c3n2)cc1 [Example 278, Phenyl-(3-pyridin-3-yl-pyrazolo[1,5-a]pyrimidin-5-yl)-amine]",1000 to 10000 nM
19,"CC(=O)Nc1cccc(-c2cnn3ccc(Nc4ccc(O)cc4)nc23)c1 [Example 50, N-{3-[5-(4-Hydroxy-phenylamino)-pyrazolo[1,5-a]pyrimidin-3-yl]-phenyl}-acetamide]",< 1000 nM
20,"COc1ccc(Nc2ccn3ncc(-c4cnn(C)c4)c3n2)cn1 [Example 198, (6-Methoxy-pyridin-3-yl)-[3-(1-methyl-1H-pyrazol-4-yl)-pyrazolo[1,5-a]pyrimidin-5-yl]-amine]",< 1000 nM
21,"COc1cccc(-c2cnn3ccc(Nc4ccc(OC)nc4)nc23)c1 [Example 196, [3-(3-Methoxy-phenyl)-pyrazolo[1,5-a]pyrimidin-5-yl]-(6-methoxy-pyridin-3-yl)-amine]",< 1000 nM
22,"CC(C)c1ccc(Nc2ccn3ncc(-c4ccncc4)c3n2)cc1 [Example 36, (4-Isopropyl-phenyl)-(3-pyridin-4-yl-pyrazolo[1,5-a]pyrimidin-5-yl)-amine]",1000 to 10000 nM
23,"COc1cc(-c2cnn3ccc(NCc4cccnc4)nc23)cc(OC)c1OC [Example 126, Pyridin-3-ylmethyl-[3-(3,4,5-trimethoxy-phenyl)-pyrazolo[1,5-a]pyrimidin-5-yl]-amine]",1000 to 10000 nM
24,"Fc1ccc(-c2cnn3ccc(NCc4cccnc4)nc23)cc1Cl [Example 379, [3-(3-Chloro-4-fluoro-phenyl)-pyrazolo[1,5-a]pyrimidin-5-yl]-pyridin-3-ylmethyl-amine]",1000 to 10000 nM
25,"COc1cc(Nc2ccn3ncc(-c4cccc(C(C)=O)c4)c3n2)cc(OC)c1OC [Example 179, 1-{3-[5-(3,4,5-Trimethoxy-phenylamino)-pyrazolo[1,5-a]pyrimidin-3-yl]-phenyl}-ethanone]",1000 to 10000 nM
26,"Cn1cc(-c2cnn3ccc(Nc4ccc(N5CCOCC5)cc4)nc23)cn1 [Example 235, [3-(1-Methyl-1H-pyrazol-4-yl)-pyrazolo[1,5-a]pyrimidin-5-yl]-(4-morpholin-4-yl-phenyl)-amine]",1000 to 10000 nM
27,"Cc1ccc(S(=O)(=O)Nc2ccc(Nc3ccn4ncc(-c5ccc(C(=O)NCCN(C)C)cc5)c4n3)cc2)cc1 [Example 320, N-(2-Dimethylamino-ethyl)-4-{5-[4-(toluene-4-sulfonylamino)-phenylamino]-pyrazolo[1,5-a]pyrimidin-3-yl}-benzamide]",1000 to 10000 nM
28,"COc1cc(-c2cnn3ccc(Nc4cccc(Cl)c4)nc23)ccc1O [Example 314, 4-[5-(3-Chloro-phenylamino)-pyrazolo[1,5-a]pyrimidin-3-yl]-2-methoxy-phenol]",1000 to 10000 nM
29,"COc1cc(Nc2ccn3ncc(-c4cnn(C)c4)c3n2)cc(OC)c1OC [Example 182, [3-(1-Methyl-1H-pyrazol-4-yl)-pyrazolo[1,5-a]pyrimidin-5-yl]-(3,4,5-trimethoxy-phenyl)-amine]",1000 to 10000 nM
30,"c1csc(-c2cnn3ccc(Nc4ccc(N5CCOCC5)cc4)nc23)c1 [Example 234, (4-Morpholin-4-yl-phenyl)-(3-thiophen-2-yl-pyrazolo[1,5-a]pyrimidin-5-yl)-amine]",1000 to 10000 nM
